Where a SMILES comes first, the peptide text is derived from it. Bridges are numbered along the chain shown (N, C = ends). Triazole bridges read from a SMILES are 1,4-linked. [ ]: non-standard residue; d: D form. Ala(cPent) = N[C@@H](CC1CCCC1)C(=O)O; Aha = [N-]=[N+]=NCC[C@H](N)C(=O)O; Tle = CC(C)(C)[C@H](N)C(=O)O; dDab = NCC[C@@H](N)C(=O)O; Orn = NCCC[C@H](N)C(=O)O; Pra = C#CC[C@H](N)C(=O)O; Dab = NCC[C@H](N)C(=O)O; Dap = NC[C@H](N)C(=O)O
Legend:
[1] = system: Acinetobacter baumannii DSM 30008; type: cell-based; details: DSM 30008
How it was run: (§1)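 Peptide activity was tested by NCCLS broth microdilution with slight modifications. Bacteria were diluted in cation-adjusted Mueller-Hinton II broth to approximately 10^6 CFU/mL against a 0.5 McFarland standard. They were then exposed to two-fold serial peptide dilutions in broth containing 0.002% final polysorbate 80.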

[2] = system: Escherichia coli ATCC 25922; type: cell-based; details: ATCC 25922
How it was run: as §1

[3] = system: Klebsiella pneumoniae ATCC 13883; type: cell-based; details: ATCC 13883
How it was run: as §1

[4] = system: human red blood cells (hRBC); test: Hemolysis: hemolytic activity at 100 μg/mL, 1 h at 37° C.; details: red cells of human, 1 h, 100
How it was run: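 Peptides at 100 μg/mL incubated with washed 20% (v/v) human erythrocytes (~0.9×10^9 cells/mL) for 1 h at 37 °C with shaking. Released hemoglobin read at OD 540 nm in supernatant; 0% and 100% lysis from PBS/0.001% acetic acid and 2.5% Triton X-100.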

Compound	Acinetobacter baumannii DSM 30008 MIC [1]	Escherichia coli ATCC 25922 MIC [2]	Klebsiella pneumoniae ATCC 13883 MIC [3]	Hemolysis at 100 μg/mL [4]
CC(C)C[C@@H]1NC(=O)[C@H](CCCNC(=N)N)NC(=O)[C@@H](CCN)NC(=O)[C@H](C(C)C)NC(=O)[C@H](C)NC(=O)[C@H](C(C)C)NC(=O)[C@@H]2CSSC[C@H](NC(=O)[C@H](Cc3ccc(O)cc3)NC(=O)[C@H](CO)NC1=O)C(=O)N[C@@H](CCCN)C(=O)NCC(=O)N[C@@H](CCN)C(=O)N[C@@H](Cc1c[nH]c3ccccc13)C(=O)N2 [Example 40, cyclo(-Leu-Ser-Tyr-Cys-Orn-Gly-Dab-Trp-Cys-Val-Ala-Val-^DDab-Arg-)] (HELM PEPTIDE1{A.V.[NCC[C@@H](N[*:1])C(=O)[*:2]].R.L.S.Y.C.[Orn].G.[Dab].W.C.V}$PEPTIDE1,PEPTIDE1,8:R3-13:R3|PEPTIDE1,PEPTIDE1,1:R1-14:R2$$$V2.0)	4 µg/mL	4 µg/mL	2 µg/mL	4%
CC[C@H](C)[C@@H]1NC(=O)[C@@H]2CCCN2C(=O)[C@@H](CCN)NC(=O)[C@H](CO)NC(=O)[C@H](C)NC(=O)[C@H](C(C)(C)C)NC(=O)[C@H](CCN)NC(=O)[C@H](Cc2c[nH]c3ccccc23)NC(=O)[C@H](CCN)NC(=O)[C@@H](CCN)NC(=O)[C@H](CCCN)NC(=O)[C@H](CCN)NC(=O)[C@H](Cc2ccc(O)cc2)NC(=O)[C@H]([C@@H](C)O)NC1=O [Example 48, cyclo(-Ile-Thr-Tyr-Dab-Orn-^DDab-Dab-Trp-Dab-tBuGly-Ala-Ser-^DDab-Pro-)] (cyclo(AS[dDab]PITY[Dab][Orn][dDab][Dab]W[Dab][Tle]))	8 µg/mL	1 µg/mL	2 µg/mL	1%
CC(C)C[C@@H]1NC(=O)[C@H](CCN)NC(=O)[C@@H](CCN)NC(=O)[C@H](C(C)C)NC(=O)[C@@H]2CSSC[C@H](NC1=O)C(=O)N[C@@H](Cc1ccc(O)cc1)C(=O)N[C@@H](CC(N)=O)C(=O)N[C@@H](CCCN)C(=O)N[C@H](CCN)C(=O)N[C@@H](CCN)C(=O)N[C@@H](Cc1c[nH]c3ccccc13)C(=O)N[C@@H](CO)C(=O)N[C@@H](Cc1ccc(O)cc1)C(=O)N2 [Example 51, cyclo(-Leu-Cys-Tyr-Asn-Orn-^DDab-Dab-Trp-Ser-Tyr-Cys-Val-^DDab-Dab-)] (HELM PEPTIDE1{C.V.[NCC[C@@H](N[*:1])C(=O)[*:2]].[Dab].L.C.Y.N.[Orn].[NCC[C@@H](N[*:1])C(=O)[*:2]].[Dab].W.S.Y}$PEPTIDE1,PEPTIDE1,1:R3-6:R3|PEPTIDE1,PEPTIDE1,1:R1-14:R2$$$V2.0)	0.75 µg/mL	0.75 µg/mL	0.75 µg/mL	2%
CC(C)C[C@@H]1NC(=O)[C@H](CCCNC(=N)N)NC(=O)[C@@H](CCN)NC(=O)[C@H](CC(C)C)NC(=O)[C@@H]2CSSC[C@H](NC1=O)C(=O)N[C@@H](Cc1ccc(O)cc1)C(=O)N[C@@H](CC(N)=O)C(=O)N[C@@H](CCCN)C(=O)N[C@H](CCN)C(=O)N[C@@H](CCN)C(=O)N[C@@H](Cc1c[nH]c3ccccc13)C(=O)N[C@@H](CO)C(=O)N[C@@H](Cc1ccc(O)cc1)C(=O)N2 [Example 63, cyclo(-Leu-Cys-Tyr-Asn-Orn-^DDab-Dab-Trp-Ser-Tyr-Cys-Leu-^DDab-Arg-)] (HELM PEPTIDE1{C.L.[NCC[C@@H](N[*:1])C(=O)[*:2]].R.L.C.Y.N.[Orn].[NCC[C@@H](N[*:1])C(=O)[*:2]].[Dab].W.S.Y}$PEPTIDE1,PEPTIDE1,1:R3-6:R3|PEPTIDE1,PEPTIDE1,1:R1-14:R2$$$V2.0)	0.625 µg/mL	1 µg/mL	0.75 µg/mL	3%
CC(C)C[C@@H]1NC(=O)[C@H](CCCNC(=N)N)NC(=O)[C@@H](CCN)NC(=O)[C@H](C(C)C)NC(=O)[C@@H]2CSSC[C@H](NC1=O)C(=O)N[C@@H](C(C)C)C(=O)N[C@@H](CC(N)=O)C(=O)N[C@@H](CCCN)C(=O)N[C@H](CCN)C(=O)N[C@@H](CCN)C(=O)N[C@@H](Cc1c[nH]c3ccccc13)C(=O)N[C@@H](CO)C(=O)N[C@@H](Cc1ccc(O)cc1)C(=O)N2 [Example 18, cyclo(-Leu-Cys-Val-Asn-Orn-^DDab-Dab-Trp-Ser-Tyr-Cys-Val-^DDab-Arg-)] (HELM PEPTIDE1{C.V.N.[Orn].[NCC[C@@H](N[*:1])C(=O)[*:2]].[Dab].W.S.Y.C.V.[NCC[C@@H](N[*:1])C(=O)[*:2]].R.L}$PEPTIDE1,PEPTIDE1,1:R3-10:R3|PEPTIDE1,PEPTIDE1,1:R1-14:R2$$$V2.0)	0.25 µg/mL	0.5 µg/mL	0.5 µg/mL	8%
CC(C)[C@@H]1NC(=O)[C@@H]2CCCN2C(=O)[C@@H]([C@H](C)O)NC(=O)[C@H]([C@@H](C)O)NC(=O)[C@@H]2CC(=O)NCC[C@H](NC1=O)C(=O)N[C@@H](Cc1ccc(O)cc1)C(=O)N[C@@H](CCN)C(=O)N[C@@H](CN)C(=O)N[C@H](CCN)C(=O)N[C@@H](CCN)C(=O)N[C@@H](Cc1c[nH]c3ccccc13)C(=O)N[C@@H](CCN)C(=O)N[C@@H](C(C)(C)C)C(=O)N2 [Example 29, cyclo(-Val-Dab-Tyr-Dab-Dap-^DDab-Dab-Trp-Dab-tBuGly-Asp-Thr-^DThr-Pro-)] (cyclo(V[Dab]Y[Dab][Dap][dDab][Dab]W[Dab][Tle]DT[dT]P); lactam 2-11)	1 µg/mL	0.5 µg/mL	0.5 µg/mL	2%
CC(C)C[C@@H]1NC(=O)[C@H](CCCNC(=N)N)NC(=O)[C@@H](CCCCN)NC(=O)[C@H](C(C)C)NC(=O)[C@@H]2CSSC[C@H](NC1=O)C(=O)N[C@@H](Cc1ccc(O)cc1)C(=O)N[C@@H](CC(N)=O)C(=O)N[C@@H](CCCN)C(=O)N[C@H](CCN)C(=O)N[C@@H](CCN)C(=O)N[C@@H](Cc1c[nH]c3ccccc13)C(=O)N[C@@H](CO)C(=O)N[C@@H](Cc1ccc(O)cc1)C(=O)N2 [Example 65, cyclo(-Leu-Cys-Tyr-Asn-Orn-^DDab-Dab-Trp-Ser-Tyr-Cys-Val-^DLys-Arg-)] (HELM PEPTIDE1{C.V.[dK].R.L.C.Y.N.[Orn].[NCC[C@@H](N[*:1])C(=O)[*:2]].[Dab].W.S.Y}$PEPTIDE1,PEPTIDE1,1:R3-6:R3|PEPTIDE1,PEPTIDE1,1:R1-14:R2$$$V2.0)	1.25 µg/mL	2 µg/mL	1 µg/mL	1%
CC(C)[C@@H]1NC(=O)[C@H](Cc2ccc(O)cc2)NC(=O)[C@@H](C)NC(=O)[C@H](CO)NC(=O)[C@@H]2CC(=O)NCC[C@H](NC1=O)C(=O)N[C@@H](Cc1ccc(O)cc1)C(=O)N[C@@H](CCN)C(=O)N[C@@H](CN)C(=O)N[C@H](CCN)C(=O)N[C@@H](CCN)C(=O)N[C@@H](Cc1c[nH]c3ccccc13)C(=O)N[C@@H](CN)C(=O)N[C@@H](C(C)(C)C)C(=O)N2 [Example 31, cyclo(-Val-Dab-Tyr-Dab-Dap-^DDab-Dab-Trp-Dap-tBuGly-Asp-Ser-^DAla-Tyr-)] (cyclo(DS[dA]YV[Dab]Y[Dab][Dap][dDab][Dab]W[Dap][Tle]); lactam 1-6)	4 µg/mL	1 µg/mL	1 µg/mL	1%
CC(C)[C@@H]1NC(=O)[C@@H]2CSSC[C@H](NC(=O)[C@H](CC3CCCC3)NC(=O)[C@H](CCCNC(=N)N)NC(=O)[C@@H](CCN)NC1=O)C(=O)N[C@@H](Cc1ccc(O)cc1)C(=O)N[C@@H](CC(N)=O)C(=O)N[C@@H](CCCN)C(=O)N[C@H](CCN)C(=O)N[C@@H](CCN)C(=O)N[C@@H](Cc1c[nH]c3ccccc13)C(=O)N[C@@H](CO)C(=O)N[C@@H](Cc1ccc(O)cc1)C(=O)N2 [Example 58, cyclo(-Cpa-Cys-Tyr-Asn-Orn-^DDab-Dab-Trp-Ser-Tyr-Cys-Val-^DDab-Arg-)] (cyclo([Ala(cPent)]CYN[Orn][dDab][Dab]WSYCV[dDab]R); disulfide 2-11)	0.625 µg/mL	0.5 µg/mL	0.75 µg/mL	3%
CC(C)[C@@H]1NC(=O)[C@@H]2CCCN2C(=O)[C@H]2CCCN2C(=O)[C@H](CO)NC(=O)[C@@H]2CCn3cc(nn3)C[C@H](NC1=O)C(=O)N[C@@H](Cc1ccc(O)cc1)C(=O)N[C@@H](CCN)C(=O)N[C@@H](CN)C(=O)N[C@H](CCN)C(=O)N[C@@H](CCN)C(=O)N[C@@H](Cc1c[nH]c3ccccc13)C(=O)N[C@@H](CCN)C(=O)N[C@@H](C(C)(C)C)C(=O)N2 [Example 34, cyclo(-Val-Pra-Tyr-Dab-Dap-^DDab-Dab-Trp-Dab-tBuGly-Abu(4N3)-Ser-^DPro-Pro-)] (cyclo(V[Pra]Y[Dab][Dap][dDab][Dab]W[Dab][Tle][Aha]S[dP]P); triazole 2-11)	4 µg/mL	4 µg/mL	2 µg/mL	0%

From patent US11753446B2, “Beta-hairpin peptidomimetics” (POLYPHOR AG, priority 2014, dated 2023)
